The values below are quoted from earlier work in patent US12458707B2, “Targeted delivery of immunoregulatory drugs” (The Brigham and Women's Hospital, Inc., priority 2014, dated 2025).

The series has as its system NOD mice. To be noted: 2.5 mg/kg/day every other day.

`C=CC[C@@H]1/C=C(\C)C[C@H](C)C[C@H](OC)[C@H]2O[C@@](O)(C(=O)C(=O)N3CCCC[C@H]3C(=O)O[C@H](/C(C)=C/[C@@H]3CC[C@@H](O)[C@H](OC)C3)[C@H](C)[C@@H](O)CC1=O)[C@H](C)C[C@@H]2OC` [TAC, Tacrolimus]: the “suppression of T1D” value is reported as “efficiently suppress T1D”.
